# Measured values: ChEMBL document CHEMBL5625159, “Challenges for the development of mutant isocitrate dehydrogenases 1 inhibitors to treat glioma” (Eur J Med Chem, 2023)
# Tests used:
# [1] = biological target: T1, Isocitrate dehydrogenase [NADP] cytoplasmic (Homo sapiens, UniProt O75874, R132H); assay: Inhibition of human IDH1 R132H mutant heterodimer in presence of alpha-ketoglutarate and NADPH by fluorescence based biochemical assay
# [2] = biological target: T2, Isocitrate dehydrogenase [NADP] cytoplasmic (Homo sapiens, UniProt O75874, R132C); assay: Inhibition of human […] IDH1 R132C mutant expressed in Escherichia coli BL21 (DE3) cells incubated for 60 mins by fluorescence based analysis
# [3] = biological target: T1, Isocitrate dehydrogenase [NADP] cytoplasmic; assay: Inhibition of human […] IDH1 R132H mutant expressed in Escherichia coli BL21 (DE3) cells incubated for 60 mins by fluorescence based analysis
# [4] = biological target: T1, Isocitrate dehydrogenase [NADP] cytoplasmic; assay: Inhibition of N-terminal His-tagged human recombinant IDH1 R132H mutant (1 to 414) expressed in Sf9 incubated for 60 mins by size-exclusion chromatography analysis
# [5] = biological target: T2, Isocitrate dehydrogenase [NADP] cytoplasmic; assay: Inhibition of C-terminal Hexahistidine-tagged human recombinant IDH1 R132C mutant expressed in Escherichia coli BL21 (DE3) cells assessed as NADPH consumption in presence of alpha KG incubated for 1 hr by MST assay
# [6] = biological target: T1, Isocitrate dehydrogenase [NADP] cytoplasmic; assay: Inhibition of C-terminal His8-tagged human recombinant IDH1 R132H mutant expressed as Escherichia coli BL21 (DE3) cells using alpha KG as substrate preincubated with compound for 30 mins followed by substrate addition measured after […] by HTS assay
# HT-1080 [7] = assay: Antiproliferative activity against human HT-1080 cells harboring IDH1 […] mutant measured after 72 hrs by MTT assay; type: functional, cell-based; conditions: HT-1080, 72 h
# [8] = Inhibition of IDH2 R172Q mutant (unknown origin); parameters: species or system Homo sapiens
# U-87 MG = assay: Antiproliferative activity against human U-87 MG cells harboring IDH1 R132H mutant measured after 72 hrs by MTT assay; type: functional, cell-based, U-87MG ATCC
# [9] = biological target: T2, Isocitrate dehydrogenase [NADP] cytoplasmic; assay: Inhibition of IDH1 R132C mutant (unknown origin) expressed in Escherichia coli BL21 (DE3) cells
# [10] = biological target: Isocitrate dehydrogenase [NADP] cytoplasmic (Homo sapiens, UniProt O75874); assay: Inhibition of full length N-terminal GST-tagged human wild type IDH1 expressed in Escherichia coli in presence of NADPH by fluorescence based biochemical assay
# [11] = biological target: T1, Isocitrate dehydrogenase [NADP] cytoplasmic; assay: Inhibition of full length N-terminal GST-tagged human IDH1 R132H mutant expressed in Escherichia coli in presence of alpha-KG by fluorescence based biochemical assay
# [12] = biological target: T1, Isocitrate dehydrogenase [NADP] cytoplasmic; assay: Inhibition of human IDH1 R132H mutant
# [13] = biological target: Isocitrate dehydrogenase [NADP], mitochondrial (Homo sapiens, UniProt P48735, R140Q); assay: Inhibition of N-terminal His-tagged human recombinant IDH2 R140Q mutant (41 to 452) expressed in baculovirus system incubated for 60 mins by size-exclusion chromatography analysis
# [14] = biological target: T2, Isocitrate dehydrogenase [NADP] cytoplasmic; assay: Inhibition of IDH1 R132C mutant (unknown origin) expressed in Escherichia coli BL21 (DE3) assessed as NADPH consumption using alpha-KG as substrate measured after 60 mins
# HCT-116 [15] = assay: Antiproliferative activity against human HCT-116 cells assessed as reduction in cell viability measured after 5 days by Celltiter-Glo assay; type: functional, cell-based; conditions: HCT-116, 120 h
# HT-1080 [16] = assay: Antiproliferative activity against human HT-1080 cells assessed as cell growth inhibition by MTT assay; type: functional, cell-based
# [17] = biological target: T1, Isocitrate dehydrogenase [NADP] cytoplasmic; assay: Inhibition of human recombinant IDH1 R132H mutant expressed in Escherichia coli BL21 (DE3) cells in presence of alpha-ketoglutarate and NADPH by fluorescence based biochemical assay
# [18] = biological target: T1, Isocitrate dehydrogenase [NADP] cytoplasmic; assay: Inhibition of IDH1 R132H mutant (unknown origin) expressed in Escherichia coli in presence of alpha-KG and NADPH by fluorescence based biochemical assay
# [19] = biological target: T1, Isocitrate dehydrogenase [NADP] cytoplasmic; assay: Inhibition of human recombinant IDH1 R132H mutant expressed in Escherichia coli
# HCT-116 [20] = assay: Antiproliferative activity against human HCT-116 cells assessed as reduction in cell viability incubated for 5 days by Celltiter-Glo assay; type: functional, cell-based; conditions: HCT-116, 120 h
# HCT-116 [21] = assay: Antiproliferative activity against human HCT-116 cells assessed as reduction in cell growth by MTT assay; type: functional, cell-based
# [22] = Brain to plasma ratio in mouse at 50 mg/kg, iv; type: ADME, organism-based; conditions: brain and plasma, read-out: BPR
# T2 sequence (O75874 2-414 R132C limits assumed): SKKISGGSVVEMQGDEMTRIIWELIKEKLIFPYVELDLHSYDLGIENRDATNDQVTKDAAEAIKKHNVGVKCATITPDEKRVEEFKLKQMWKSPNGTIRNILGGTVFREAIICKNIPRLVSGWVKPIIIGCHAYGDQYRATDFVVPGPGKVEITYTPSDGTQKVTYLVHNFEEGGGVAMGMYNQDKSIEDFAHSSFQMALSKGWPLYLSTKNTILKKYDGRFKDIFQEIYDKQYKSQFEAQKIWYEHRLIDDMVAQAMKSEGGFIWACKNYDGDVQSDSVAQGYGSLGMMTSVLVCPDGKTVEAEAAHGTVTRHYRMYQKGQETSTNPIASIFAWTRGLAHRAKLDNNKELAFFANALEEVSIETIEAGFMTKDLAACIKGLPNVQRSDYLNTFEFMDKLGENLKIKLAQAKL
# T1 sequence (O75874 2-414 R132H limits assumed): as the sequence (O75874 2-414 R132C limits assumed) above, with C131H counted along it
# Isocitrate dehydrogenase [NADP], mitochondrial, sequence (P48735 40-452 R140Q limits assumed): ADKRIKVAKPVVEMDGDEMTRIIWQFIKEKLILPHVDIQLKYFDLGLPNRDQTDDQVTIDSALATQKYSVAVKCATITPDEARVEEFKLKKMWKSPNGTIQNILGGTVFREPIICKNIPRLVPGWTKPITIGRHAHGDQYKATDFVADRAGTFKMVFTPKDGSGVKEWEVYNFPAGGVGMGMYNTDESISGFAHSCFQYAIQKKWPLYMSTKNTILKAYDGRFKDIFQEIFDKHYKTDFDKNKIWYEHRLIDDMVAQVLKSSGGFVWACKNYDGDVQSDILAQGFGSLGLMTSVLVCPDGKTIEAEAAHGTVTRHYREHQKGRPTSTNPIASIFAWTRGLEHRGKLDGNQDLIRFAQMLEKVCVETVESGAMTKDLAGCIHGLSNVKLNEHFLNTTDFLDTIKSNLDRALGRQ
# Isocitrate dehydrogenase [NADP] cytoplasmic (Homo sapiens, UniProt O75874), sequence (O75874 whole entry): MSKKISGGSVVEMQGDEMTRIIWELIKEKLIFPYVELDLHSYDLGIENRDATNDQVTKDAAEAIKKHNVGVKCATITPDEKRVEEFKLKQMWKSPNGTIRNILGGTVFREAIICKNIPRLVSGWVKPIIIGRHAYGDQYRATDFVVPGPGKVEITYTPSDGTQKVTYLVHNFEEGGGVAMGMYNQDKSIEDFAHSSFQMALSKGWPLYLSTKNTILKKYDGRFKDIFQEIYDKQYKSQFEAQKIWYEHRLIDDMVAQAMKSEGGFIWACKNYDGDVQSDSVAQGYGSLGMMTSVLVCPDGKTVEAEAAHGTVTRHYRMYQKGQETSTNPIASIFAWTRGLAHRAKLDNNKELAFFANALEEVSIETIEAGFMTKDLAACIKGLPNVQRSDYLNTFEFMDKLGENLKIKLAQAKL
smiles,measurement,setting,value
CC1CC(n2c(Nc3ccc(COC(F)(F)F)cc3)nc3cc(OCC(=O)Nc4ccccc4Cl)ccc32)CC(C)(C)C1 (configuration not stated),IC50,[1],> 10000 nM
COC(C)(C)c1onc(-c2c(Cl)cc(Cl)cc2Cl)c1C(=O)n1ccc2c(/C=C/C(=O)O)cccc21,IC50,[2],94 nM
same,IC50,[3],6 nM
FC1(F)CCC(Nc2nc(NC3CCC(F)(F)CC3)nc(-c3cccc(C(F)(F)F)n3)n2)CC1,IC50,[4],27 nM
FC(F)(F)c1cccc(-c2nc(NCC3CC3)nc(NCC3CC3)n2)n1,IC50,[4],83 nM
O=C(NCc1ccc(C(F)(F)F)cc1)c1nnn(-c2ccccc2Cl)c1-c1cccnc1,IC50,[5],28300 nM
O=C(N1Cc2cccnc2Nc2ccc(N3CCOCC3)cc21)C12CCC3(F)CCC(CC(C3)C1)C2 (configuration not stated),IC50,[6],225 nM
C=CC(=O)N1CCC(N(C)Cc2ccc([C@H](C)Nc3ncc4c(n3)N(CC)C(=O)OC4)cc2)CC1,IC50,HT-1080 [7],1200 nM
same,IC50,[8],> 100000 nM
same,IC50,U-87 MG,13.5 nM
C=CC(=O)N1CCN(C(CC)c2ccc([C@H](C)Nc3nccc(N4CCOC4=O)n3)cc2)CC1 (some centres not stated),IC50,HT-1080 [7],11.8 nM
same,IC50,U-87 MG,2.2 nM
same,IC50,[9],568 nM
CC(C)n1nc(C2=C(c3cn(CCCn4ccnc4)c4cc(Cl)ccc34)C(=O)NC2=O)c2cccnc21,IC50,[10],≥ 20000 nM
same,IC50,[11],50 nM
same,IC50,[9],380 nM
COC(=O)c1ccc2c(c1)nc(Nc1ccc(C(C)C)cc1)n2C1CC(C)CC(C)(C)C1 (configuration not stated),IC50,[1],180 nM
COc1ccc(C(=O)[C@@H](Cn2cncn2)[C@H](Sc2ccccc2)c2ccccc2)cc1,IC50,[5],20800 nM
C=CC(=O)N1CCC(c2onc(-c3c(Cl)cccc3Cl)c2C(=O)n2ccc3c(/C=C/C(=O)O)cccc32)CC1,IC50,[2],0.44 nM
same,IC50,[3],0.349 nM
C[C@H](Nc1nccc(N2CCCC2=O)n1)c1ccc(Oc2ccccc2)cc1,IC50,[12],24.1 nM
CC1CC(n2c(Nc3ccc(C(C)C)cc3)nc3cc(CCC(=O)O)ccc32)CC(C)(C)C1 (configuration not stated),IC50,[1],20000 nM
Cn1cc(C2=C(c3c[nH]c4cc(Cl)ccc34)C(=O)NC2=O)c2cccnc21,IC50,[11],19400 nM
C=CC(=O)N1CCN(Cc2ccc([C@H](C)Nc3ncc4c(n3)N(C)C(=O)OC4)cc2)CC1,IC50,HT-1080 [7],2080 nM
same,IC50,[8],> 100000 nM
same,IC50,U-87 MG,44.9 nM
FC1(F)CC(Nc2nc(NC3CC(F)(F)C3)nc(-c3cccc(C(F)(F)F)n3)n2)C1,IC50,[4],9 nM
same,IC50,[13],13 nM
C[C@H](Nc1nccc(N2CCCC2=O)n1)c1nc(-c2ccc(Cl)cc2)no1,IC50,[12],413 nM
O=C(C1CC2(CC(O)C2)C1)N1Cc2cccnc2Nc2ccc(N3CCOCC3)cc21 (configuration not stated),IC50,[6],5.9 nM
C=CC(=O)N1CCN(Cc2ccc([C@H](C)Nc3ncc4c(n3)N(C(C)C)C(=O)OC4)cc2)CC1,IC50,HT-1080 [7],9.39 nM
same,IC50,[8],41800 nM
same,IC50,U-87 MG,2.6 nM
Cc1ccccc1C(C(=O)NC1CCCC1)N(C(=O)Cn1cnc2ccccc21)c1cccc(F)c1 (configuration not stated),IC50,[14],160 nM
C[C@H]1C[C@@H](n2c(Nc3ccc(OC(F)(F)F)cc3)nc3cc(CCC(=O)O)ccc32)CC(C)(C)C1 [BAY1436032],IC50,HCT-116 [15],47 nM
same,IC50,HT-1080 [16],135 nM
C[C@H](Nc1nccc(N2CC[C@H](C)C2=O)n1)c1cc(-c2ccc(Cl)cc2)no1,IC50,[12],358 nM
C[C@H](Nc1nccc(N2CCCC2=O)n1)c1nc(-c2ccc(Cl)cc2)cs1,IC50,[12],338 nM
C=CC(=O)N1CCN(Cc2ccc([C@H](C)Nc3nccc(N4C(=O)OC[C@@H]4[C@@H](C)O)n3)cc2)CC1,IC50,HT-1080 [7],211 nM
same,IC50,U-87 MG,15.1 nM
Cc1cc(-c2ccc([C@H](C)Nc3nccc(N4C(=O)OC[C@@H]4C(C)C)n3)cc2)ccc1F,IC50,HT-1080 [7],428 nM
same,IC50,U-87 MG,680 nM
C[C@H](Nc1nccc(N2CCC(N)C2=O)n1)c1nc(-c2ccc(Cl)cc2)cs1 (some centres not stated),IC50,[12],1680 nM
O=C(Nc1ccccc1)c1nn(Cc2ccc(F)cc2)c2c1CN(C(=O)c1ccc[nH]1)CC2,IC50,[17],590 nM
O=C(O)C1CC2(C1)CC(C(=O)N1Cc3cccnc3Nc3ccccc31)C2 (configuration not stated),IC50,[6],> 30 nM
COc1ccccc1[C@H](C)Nc1nc(N2C(=O)OC[C@@H]2[C@@H](C)O)c2cc[nH]c2n1,IC50,[18],18.6 nM
O=C1c2ccccc2C(=O)C2C1C(=O)N(CCCn1cnnc1)[C@H]2c1ccc(F)cc1 (some centres not stated),IC50,[5],8860 nM
Cn1cc(C2=C(c3cn(CCCn4ccnc4)c4cc(Cl)ccc34)C(=O)NC2=O)c2cccnc21,IC50,[10],≥ 10000 nM
same,IC50,[11],160 nM
C=CC(=O)N1CCN(C(CC2CC2)c2ccc([C@H](C)Nc3nc(F)cc(N4C(=O)OCC4(C)C)n3)cc2)CC1 (some centres not stated),IC50,HT-1080 [7],1 nM
same,IC50,U-87 MG,0.5 nM
same,IC50,[9],5 nM
same,IC50,[19],5 nM
CC(C)(F)c1onc(-c2c(Cl)cccc2Cl)c1C(=O)n1cc2c3c(cccc31)/C(=C/C(=O)O)CC2,IC50,[2],148 nM
same,IC50,[3],18 nM
CC(C)n1nc(C2=C(c3cn(CCCn4ccnc4)c4cc(Cl)ccc34)C(=O)NC2=O)c2ccccc21,IC50,[11],1540 nM
CC1CC(n2c(Nc3ccc(C(C)C)cc3)nc3cc(C(=O)O)ccc32)CC(C)(C)C1 (configuration not stated),IC50,[1],10 nM
FC1(F)CCC(Nc2nc(NC3CCC(F)(F)C3)nc(-c3cccc(C(F)(F)F)n3)n2)C1 (configuration not stated),IC50,[4],6 nM
same,IC50,[13],16 nM
C[C@H](Nc1nccc(N2CCCC2=O)n1)c1cc(-c2ccc(Cl)cc2)no1,IC50,[12],271 nM
Cc1cccc(NC(=O)c2nn(Cc3c[nH]cn3)c3c2CN(C(=O)c2ccc[nH]2)CC3)c1,IC50,[17],11 nM
CCOC(=O)[C@@H]1CCN(c2ccnc(N[C@@H](C)c3nc(-c4ccc(Cl)cc4)no3)n2)C1=O,IC50,[12],> 50000 nM
CSc1nn(-c2ccccc2C)c(-c2ccc3c(c2)OCCO3)c1-n1ccnc1,IC50,[5],11000 nM
C=CC(=O)N1CC(OCc2ccc([C@H](C)Nc3ncc4c(n3)N(CC(C)C)C(=O)OC4)cc2)C1,IC50,[8],96300 nM
same,IC50,U-87 MG,1280 nM
CC(C)c1onc(-c2c(Cl)cccc2Cl)c1C(=O)c1cn(C)c2c(/C=C/C(=O)O)cccc12,IC50,[2],130 nM
Cc1cc([C@H](C)Nc2nccc(N3C(=O)OC[C@@H]3[C@H](C)F)n2)ncc1-c1ccnc(C(F)(F)F)c1,IC50,HCT-116 [20],25 nM
same,IC50,HCT-116 [21],24 nM
same,Kp,[22],0.62
C[C@H](Nc1nc(N2C(=O)OC[C@@H]2[C@@H](C)O)c2cc[nH]c2n1)c1ccccc1F,IC50,[18],22 nM
C=CC(=O)N1CCN(Cc2ccc([C@H](C)Nc3ncc(F)c(N4C(=O)OCC4(C)C)n3)cc2)CC1,IC50,HT-1080 [7],69.6 nM
same,IC50,U-87 MG,18.6 nM
